# Data as given in PubChem BioAssay AID384 (SGCOxCompounds, 2006).
# Target: Casein kinase I isoform gamma-2 (Homo sapiens) (UniProt P78368)
# Assay: CSNK1G2 binders by thermal stabilization, biophysical, DSF, SYPRO orange, recombinant protein (AID 384)
# Conditions: at 10 µM, protein 2 µM, buffer 10 mM HEPES, NaCl 100 mM, hits give high values
# Sequence of Casein kinase I isoform gamma-2 (Homo sapiens) (P78368 whole entry, looked up, canonical isoform): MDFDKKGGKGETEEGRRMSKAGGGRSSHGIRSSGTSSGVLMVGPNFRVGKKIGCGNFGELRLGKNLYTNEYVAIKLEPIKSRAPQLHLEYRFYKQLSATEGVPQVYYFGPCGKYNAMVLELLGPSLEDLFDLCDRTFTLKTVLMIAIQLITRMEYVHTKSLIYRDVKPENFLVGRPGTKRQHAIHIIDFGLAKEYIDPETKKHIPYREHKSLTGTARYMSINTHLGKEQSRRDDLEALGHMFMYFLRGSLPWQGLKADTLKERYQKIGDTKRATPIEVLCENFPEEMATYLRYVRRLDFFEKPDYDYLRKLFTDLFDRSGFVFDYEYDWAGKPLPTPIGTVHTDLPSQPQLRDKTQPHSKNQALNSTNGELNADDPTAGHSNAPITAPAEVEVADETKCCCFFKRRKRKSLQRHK
row,Compound,Tm shift [Celsius]
1,CCN(CC)CCNC(=O)c1c(C)[nH]c(/C=C2\C(=O)Nc3ccc(Cl)cc32)c1C,4.06
2,CCn1cnc2c(Nc3cccc(Cl)c3)nc(N[C@@H]3CCCC[C@@H]3N)nc21,3.79
3,Clc1ccc(Nc2ncc(-c3cn[nH]c3)n3ccnc23)cc1,3.76
4,CC(C)n1cnc2c(Nc3cccc(Cl)c3)nc(NCCO)nc21,5.58
5,NC1=N/C(=C2/CCNC(=O)c3[nH]c(Br)cc32)C(=O)N1,8.12
6,CC(C)C(CO)Nc1nc(Nc2cccc(Cl)c2)c2ncn(C(C)C)c2n1 (configuration not stated),4.92
7,O=C1C(=O)C(c2cc(O)c(O)c(O)c2)Oc2cc(O)cc(O)c21 (configuration not stated),3.74
8,NC1=N/C(=C2\CCNC(=O)c3[nH]ccc32)C(=O)N1,3.67
9,COc1cc(O)c2c(c1)oc(=O)c1c3cc(O)c(O)cc3oc21,5.16
10,COc1cc(/C=C/C(=O)CC(=O)/C=C/c2ccc(O)c(OC)c2)ccc1O,4.92
11,Nc1ncnc2c1c(I)cn2[C@@H]1O[C@H](CO)C(O)C1O (some centres not stated),4.69
12,O=c1c(O)c(-c2ccc(O)c(O)c2)oc2cc(O)ccc12,3.19
13,O=c1cc(-c2ccc(O)c(O)c2)oc2cc(O)cc(O)c12,4.55

# Same assay, conditions: at 10 µM, protein 2 µM, buffer 10 mM HEPES, pH 7.5, NaCl 150 mM, hits give high values
row,Compound,Tm shift [Celsius]
1,COc1ccc(Nc2nc(N)c(C(=O)c3ccc(OC)cc3)s2)cc1,4.3
2,O=Nc1c(-c2c(O)[nH]c3ccc(S(O)(O)O)cc23)[nH]c2ccccc12,3.1
3,CSc1nc(-c2ccnc(NC(C)c3ccccc3)c2)c(-c2ccc(F)cc2)[nH]1 (configuration not stated),3.4
4,O=Nc1c(-c2c(O)[nH]c3ccc(I)cc23)[nH]c2ccccc12,3.6
5,CC(C)n1cnc2c(Nc3cccc(Cl)c3)nc(NCCO)nc21,4.7
6,COc1ccc(Nc2nc(N)c(C(=O)c3ccc(Cl)cc3)s2)cc1,3.1
7,NC1=N/C(=C2/CCNC(=O)c3[nH]c(Br)cc32)C(=O)N1,4.4
8,Cc1nc(N)sc1-c1ccnc(Nc2cccc(-n3oo3)c2)n1,4
9,Cc1cc(Nc2nc(-c3ccccc3)nc3ccccc23)n[nH]1,3.3
10,Nc1ncnc2c1c(I)cn2[C@@H]1O[C@H](CO)C(O)C1O (some centres not stated),3.3
11,O=c1c(O)c(-c2ccc(O)c(O)c2)oc2cc(O)cc(O)c12,3.1
12,NC(=O)c1ccc(-c2nc(-c3ccc4c(c3)OCCO4)c(-c3ccccn3)[nH]2)cc1,4.3
13,Nc1nc(Nc2cccc(Cl)c2)sc1C(=O)c1ccc(F)cc1,3.4
14,O=c1[nH]c(O)c2c1c1c3ccccc3nc1n1cncc21,3.6
